Assay results reported in BindingDB's records for doi:10.1021/jm030424e (Isis Pharmaceuticals, 2004).

assay: Inhibition HCV RNA replication

SMILES | EC50
Nc1ncnc2c1ncn2[C@@H]1O[C@H](CO)[C@@H](O)[C@@H]1O [adenine arabinoside] | > 50 µM
C[C@@]1(O)[C@H](O)[C@@H](CO)O[C@H]1n1cnc2cnc(N)nc21 [(2R,3R,4R,5R)-2-(2-amino-9H-purin-9-yl)-5-(hydroxymethyl)-3-methyloxolane-3,4-diol] | > 50 µM
C[C@]1(O)[C@H](O)[C@@H](CO)O[C@H]1n1cnc2c(N)ncnc21 [(2R,3S,4R,5R)-2-(6-amino-9H-purin-9-yl)-5-(hydroxymethyl)-3-methyloxolane-3,4-diol] | > 50 µM
CC[C@@]1(O)[C@H](O)[C@@H](CO)O[C@H]1n1cnc2c(N)ncnc21 [(2R,3R,4R,5R)-2-(6-amino-9H-purin-9-yl)-3-ethyl-5-(hydroxymethyl)oxolane-3,4-diol] | > 50 µM
C[C@]1(O)[C@@H](CO)O[C@@H](n2cnc3c(N)ncnc32)[C@@H]1O | > 50 µM
Nc1nc2c(ncn2[C@@H]2O[C@H](CO)C[C@H]2O)c(=O)[nH]1 [2-Amino-9-((2R,3R,5S)-3-hydroxy-5-hydroxymethyl-tetrahydro-furan-2-yl)-1,9-dihydro-purin-6-one] | 50 µM
C[C@@]1(O)[C@H](O)[C@@H](CO)O[C@H]1n1cnc2c(N)nc(N)nc21 [(2R,3R,4R,5R)-2-(2,6-diamino-9H-purin-9-yl)-5-(hydroxymethyl)-3-methyloxolane-3,4-diol] | 7 µM
C[C@@]1(O)[C@H](O)[C@@H](CO)O[C@H]1n1cnc2cncnc21 [(2R,3R,4R,5R)-5-(hydroxymethyl)-3-methyl-2-(9H-purin-9-yl)oxolane-3,4-diol] | > 50 µM
CO[C@@H]1[C@H](O)[C@@H](CO)O[C@H]1n1cnc2c(N)ncnc21 | > 50 µM
Nc1nc2c(ncn2[C@@H]2O[C@H](CO)[C@H](O)[C@H]2O)c(=O)[nH]1 | > 50 µM
C[C@@]1(O)[C@H](O)[C@@H](CO)O[C@H]1n1cnc2c(N)ncnc21 [(2R,3R,4R,5R)-2-(6-amino-9H-purin-9-yl)-5-(hydroxymethyl)-3-methyl-tetrahydrofuran-3,4-diol] | 0.3 µM
C[C@@]1(O)[C@@H](CO)O[C@@H](n2cnc3c(N)ncnc32)[C@@H]1O | > 50 µM
C[C@@]1(O)[C@H](O)[C@@H](CO)O[C@H]1n1cnc2c(=O)[nH]cnc21 [(2R,3R,4R,5R)-2-(6-hydroxy-9H-purin-9-yl)-5-(hydroxymethyl)-3-methyloxolane-3,4-diol] | > 50 µM
CO[C@]1(C)[C@H](O)[C@@H](CO)O[C@H]1n1cnc2c(N)ncnc21 [(2R,3R,4R,5R)-5-(6-amino-9H-purin-9-yl)-2-(hydroxymethyl)-4-methoxy-4-methyloxolan-3-ol] | > 50 µM
Nc1nc2c(ncn2[C@@H]2O[C@H](CO)[C@@H](O)[C@H]2F)c(=O)[nH]1 [2-Amino-9-((2R,3R,4R,5R)-3-fluoro-4-hydroxy-5-hydroxymethyl-tetrahydro-furan-2-yl)-1,9-dihydro-purin-6-one] | > 50 µM
Nc1nc2c(ncn2[C@@H]2O[C@H](CO)[C@@H](F)[C@H]2O)c(=O)[nH]1 [2-Amino-9-((2R,3S,4S,5R)-4-fluoro-3-hydroxy-5-hydroxymethyl-tetrahydro-furan-2-yl)-1,9-dihydro-purin-6-one] | > 50 µM
CO[C@@H]1[C@H](O)[C@@H](CO)O[C@H]1n1cnc2c(=O)[nH]c(N)nc21 [2-Amino-9-((2R,3R,4R,5R)-4-hydroxy-5-hydroxymethyl-3-methoxy-tetrahydro-furan-2-yl)-1,9-dihydro-purin-6-one] | > 50 µM
